Results: PubChem BioAssay (NCI)
“And” between values parts separate entries of the source, which are not always exact repeats. Equal entries are not always repeated.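 Briefly, cells in 96-well plates were exposed to five compound concentrations for 48 h, and endpoints were estimated by linear interpolation. Here, GI50 denotes the concentration required for 50% inhibition of growth. The concentration for full growth arrest is given as TGI.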

Tests used:
Assay in all cases: inhibition of tumour cell growth, NCI panel, 48 h
[1] = test system: RXF 393 renal
[2] = test system: NCI-H460 lung
[3] = test system: CAKI-1 renal
[4] = test system: HL-60(TB) leukemia
[5] = test system: DU-145 prostate
[6] = test system: SF-268 CNS
[7] = test system: UO-31 renal
[8] = test system: NCI-H226 lung
[9] = test system: HOP-62 NSCLC
[10] = test system: BT-549 breast
[11] = test system: OVCAR-8 ovarian
[12] = test system: A498 renal
[13] = test system: SK-MEL-2 melanoma
[14] = test system: COLO 205 colon
[15] = test system: SR leukemia
[16] = test system: NCI-H522 lung
[17] = test system: HCC-2998 colon
[18] = test system: NCI/ADR-RES ovarian
[19] = test system: MALME-3M melanoma
[20] = test system: HOP-92 NSCLC
[21] = test system: 786-0 renal
[22] = test system: PC-3 prostate
[23] = test system: MOLT-4 leukemia
[24] = test system: OVCAR-5 ovarian
[25] = test system: M14 melanoma
[26] = test system: SN12C renal
[27] = test system: IGROV1 ovarian
[28] = test system: HS 578T breast
[29] = test system: CCRF-CEM leukemia
[30] = test system: SK-MEL-28 melanoma
[31] = test system: HT29 colon
[32] = test system: SK-MEL-5 melanoma
[33] = test system: K-562 leukemia
[34] = test system: SK-OV-3 ovarian
[35] = test system: KM12 colon
[36] = test system: HCT-15 colon
[37] = test system: SF-295 CNS
[38] = test system: SW-620 colon
[39] = test system: OVCAR-4 ovarian
[40] = test system: TK-10 renal
[41] = test system: MCF7 breast
[42] = test system: LOX IMVI melanoma
[43] = test system: MDA-MB-435
[44] = test system: U251 CNS
[45] = test system: OVCAR-3 ovarian
[46] = test system: UACC-62 melanoma
[47] = test system: SNB-19 CNS
[48] = test system: NCI-H23 lung
[49] = test system: T-47D breast
[50] = test system: RPMI-8226 leukemia
[51] = test system: ACHN renal
[52] = test system: MDA-MB-231 breast
[53] = test system: A549 NSCLC
[54] = test system: SNB-75 CNS
[55] = test system: SF-539 CNS
[56] = test system: UACC-257 melanoma
[57] = test system: HCT-116 colon
[58] = test system: EKVX NSCLC

## COC1CCC(N2C(=O)CNc3ncc(-c4ccc(C(C)(C)O)nc4)nc32)CC1 (centres undefined)
[1]
  GI50: 373 nM and 187 nM
  TGI: 3660 nM and 2320 nM
[2]
  GI50: 455 nM and 113 nM
  TGI: > 46000 nM
[3]
  GI50: 412 nM
  TGI: > 6750 nM
[4]
  GI50: 2880 nM and 1090 nM
  TGI: > 10000 nM and 30800 nM
[5]
  GI50: 1420 nM and 459 nM
  TGI: > 38000 nM
[6]
  GI50: 1970 nM and 356 nM
  TGI: > 41500 nM
[7]
  GI50: 199 nM and 76.8 nM
  TGI: 3080 nM and 10500 nM
[8]
  GI50: 305 nM and 226 nM
  TGI: > 41800 nM
[9]
  GI50: 1920 nM and 437 nM
  TGI: > 10000 nM and 14500 nM
[10]
  GI50: 329 nM and 57.2 nM
  TGI: 3600 nM and 991 nM
[11]
  GI50: 1270 nM and 436 nM
  TGI: > 35200 nM
[12]
  GI50: 61.4 nM and 42.2 nM
  TGI: 769 nM and 378 nM
[13]
  GI50: 772 nM and 183 nM
  TGI: 3690 nM and 1480 nM
[14]
  GI50: 1030 nM and 176 nM
  TGI: > 8630 nM and 9060 nM
[15]
  GI50: 1060 nM and 331 nM
  TGI: > 47200 nM
[16]
  GI50: 322 nM and 65.6 nM
  TGI: 2630 nM
[17]
  GI50: 1980 nM and 306 nM
  TGI: > 39200 nM
[18]
  GI50: 1640 nM and 435 nM
  TGI: > 100000 nM
[19]
  GI50: 228 nM and 28.7 nM
  TGI: 2800 nM and 352 nM
[20]
  GI50: 129 nM and 24.7 nM
  TGI: 934 nM and 389 nM
[21]
  GI50: 962 nM and 243 nM
  TGI: > 32100 nM
[22]
  GI50: 322 nM and 108 nM
  TGI: 4200 nM and > 33500 nM
[23]
  GI50: 1510 nM and 437 nM
  TGI: > 100000 nM
[24]
  GI50: 918 nM and 273 nM
  TGI: > 44800 nM
[25]
  GI50: 614 nM and 134 nM
  TGI: > 6950 nM and 11800 nM
[26]
  GI50: 794 nM and 315 nM
  TGI: > 43200 nM
[27]
  GI50: 315 nM and 56.4 nM
  TGI: 2800 nM and 1640 nM
[28]
  GI50: 407 nM and 137 nM
  TGI: 3680 nM and 624 nM
[29]
  GI50: 1410 nM and 738 nM
  TGI: > 100000 nM
[30]
  GI50: 378 nM and 155 nM
  TGI: 4100 nM and 10400 nM
[31]
  GI50: 1830 nM and 472 nM
  TGI: > 38400 nM
[32]
  GI50: 766 nM and 149 nM
  TGI: 2790 nM and 1460 nM
[33]
  GI50: 2280 nM and 770 nM
  TGI: > 100000 nM
[34]
  GI50: 464 nM and 71.6 nM
  TGI: 3930 nM and 551 nM
[35]
  GI50: 1200 nM and 302 nM
  TGI: > 40800 nM
[36]
  GI50: 732 nM and 293 nM
  TGI: > 36100 nM
[37]
  GI50: 511 nM and 157 nM
  TGI: 4750 nM and 3090 nM
[38]
  GI50: 1780 nM and 935 nM
  TGI: > 37500 nM
[39]
  GI50: 568 nM and 120 nM
  TGI: > 7880 nM and 1070 nM
[40]
  TGI: 5580 nM and 1860 nM
[41]
  GI50: 305 nM and 127 nM
  TGI: > 10000 nM and 12600 nM
[42]
  GI50: 1350 nM and 329 nM
  TGI: > 34200 nM
[43]
  GI50: 668 nM and 167 nM
  TGI: 3280 nM
[44]
  GI50: 1410 nM and 1060 nM
  TGI: > 33400 nM
[45]
  GI50: 904 nM and 248 nM
  TGI: > 33000 nM
[46]
  GI50: 237 nM and 111 nM
  TGI: 2080 nM and 1260 nM
[47]
  GI50: 2020 nM and 1570 nM
  TGI: > 36200 nM
[48]
  GI50: 1160 nM and 350 nM
  TGI: > 45100 nM
[49]
  GI50: 159 nM and 25.8 nM
  TGI: 786 nM and 306 nM
[50]
  GI50: 376 nM and 55.9 nM
  TGI: 2950 nM and 3970 nM
[51]
  GI50: 1070 nM and 205 nM
  TGI: > 100000 nM
[52]
  GI50: 520 nM and 283 nM
  TGI: 4800 nM and 25300 nM
[53]
  GI50: 1480 nM and 337 nM
  TGI: > 34500 nM
[54]
  GI50: 281 nM and 54.3 nM
  TGI: 3540 nM and 1600 nM
[55]
  GI50: 1420 nM and 335 nM
  TGI: 6950 nM and 4700 nM
[56]
  GI50: 649 nM and 195 nM
  TGI: 5230 nM and 3830 nM
[57]
  GI50: 2070 nM and 809 nM
  TGI: > 10000 nM and 13800 nM
[58]
  GI50: 1210 nM and 186 nM
  TGI: > 8470 nM and 6700 nM

## Clc1ccc2c(NCCCCNc3nc(N4CCCCC4)nc4ccccc34)ccnc2c1
[1]
  GI50: 1660 nM
  TGI: 3370 nM
[2]
  GI50: 2560 nM
  TGI: 9030 nM
[4]
  GI50: 1760 nM
  TGI: 3520 nM
[5]
  GI50: 3800 nM
  TGI: 15200 nM
[6]
  GI50: 1840 nM
  TGI: 7560 nM
[7]
  GI50: 1470 nM
  TGI: 3050 nM
[8]
  GI50: 3850 nM
  TGI: 16500 nM
[9]
  GI50: 1900 nM
  TGI: 5880 nM
[10]
  GI50: 1780 nM
  TGI: 4100 nM
[11]
  GI50: 2820 nM
  TGI: 10400 nM
[12]
  GI50: 1780 nM
  TGI: 4620 nM
[13]
  GI50: 1980 nM
  TGI: 4020 nM
[14]
  GI50: 1640 nM
  TGI: 3590 nM
[15]
  GI50: 408 nM
  TGI: 2880 nM
[16]
  GI50: 2040 nM
  TGI: 5300 nM
[17]
  GI50: 1960 nM
  TGI: 4230 nM
[18]
  GI50: 2680 nM
  TGI: 9180 nM
[19]
  GI50: 1850 nM
  TGI: 3480 nM
[20]
  GI50: 1560 nM
  TGI: 3390 nM
[21]
  GI50: 1440 nM
  TGI: 2760 nM
[22]
  GI50: 3330 nM
  TGI: 14600 nM
[23]
  GI50: 1980 nM
  TGI: 5620 nM
[24]
  GI50: 2170 nM
  TGI: 9230 nM
[25]
  GI50: 1620 nM
  TGI: 3140 nM
[26]
  GI50: 2780 nM
  TGI: 12700 nM
[27]
  GI50: 1800 nM
  TGI: 6590 nM
[28]
  GI50: 1820 nM
  TGI: 4600 nM
[29]
  GI50: 1660 nM
  TGI: 5230 nM
[30]
  GI50: 1890 nM
  TGI: 3820 nM
[31]
  GI50: 1630 nM
  TGI: 4860 nM
[32]
  GI50: 1770 nM
  TGI: 3180 nM
[33]
  GI50: 1340 nM
  TGI: 4100 nM
[34]
  GI50: 3810 nM
  TGI: 14400 nM
[35]
  GI50: 3400 nM
  TGI: 13100 nM
[36]
  GI50: 1150 nM
  TGI: 3130 nM
[37]
  GI50: 1220 nM
  TGI: 2600 nM
[38]
  GI50: 1590 nM
  TGI: 4780 nM
[39]
  GI50: 1590 nM
  TGI: 5240 nM
[40]
  GI50: 1680 nM
  TGI: 3500 nM
[41]
  GI50: 2520 nM
  TGI: 10800 nM
[42]
  GI50: 1500 nM
  TGI: 3140 nM
[43]
  GI50: 1670 nM
  TGI: 3200 nM
[44]
  GI50: 2020 nM
  TGI: 4560 nM
[45]
  GI50: 1950 nM
  TGI: 4890 nM
[46]
  GI50: 1790 nM
  TGI: 3480 nM
[47]
  GI50: 3090 nM
  TGI: 14200 nM
[48]
  GI50: 4670 nM
  TGI: 19200 nM
[49]
  GI50: 2120 nM
  TGI: 4300 nM
[50]
  GI50: 1460 nM
  TGI: 3940 nM
[51]
  GI50: 2100 nM
  TGI: 4770 nM
[52]
  GI50: 1750 nM
  TGI: 4280 nM
[53]
  GI50: 3150 nM
  TGI: 10300 nM
[54]
  GI50: 1320 nM
  TGI: 3130 nM
[55]
  GI50: 1490 nM
  TGI: 2970 nM
[56]
  GI50: 2050 nM
  TGI: 3680 nM
[57]
  GI50: 1200 nM
  TGI: 3060 nM
[58]
  GI50: 2690 nM
  TGI: 13800 nM
